Source: patent US20130172360A1, “DERIVATIVES OF AZAINDAZOLE OR DIAZAINDAZOLE TYPE AS MEDICAMENT” (PIERRE FABRE MEDICAMENT, priority 2011, published 2013)

What was measured:
[1] = molecular target: T1, ALK (Homo sapiens, UniProt Q9UM73); assay: Test for measuring inhibition of ALK kinase (GST-PLCγ1 substrate, anti-phosphotyrosine ELISA, luminescence); type: biochemical; settings: 250 μM ATP, 30 minutes at 30° C.; read-out: Enzymatic inhibition of ALK (IC50)
Experimental: Test for Measuring Inhibition of ALK Kinase:
A ViewPlate microplate (Packard) is incubated with 0.1 mg/ml GST-PLCγ1 substrate (purified recombinant form) in phosphate buffer (PBS, pH 7.4) (100 μl/well) for one hour under stirring. The plate is then saturated with blocking solution comprising 5% bovine serum albumin (BSA) (Sigma) in PBS buffer, pH 7.4.
After having added a compound according to the invention to the desired final concentration (typical range between 30 μM and 10 nM), the reaction is carried out by adding 180 ng/ml ALK to a reaction buffer comprised of 13 mM Tris, pH 7.5 (Sigma); 6.5 mM MgCl2 (Merck); 0.65 mM dithiothreitol (DTT) (Acros); 39 mM sodium ([…] (TCI); 0.65 mM sodium orthovanadate (Sigma); and 250 μM ATP (Sigma). Incubation is carried out for 30 minutes at 30° C. under stirring.
After three washings under stirring in 0.1% PBS/Tween-20 buffer (Sigma), an anti-phosphotyrosine antibody, coupled with HRP (UBI) diluted to 1/1000 in 5 mg/ml PBS/BSA buffer, is incubated for one hour with stirring. After three new washings in 0.1% PBS/Tween-20, the wells are incubated for two minutes with […] of SuperSignal ELISA mixture (Pierce).
The signal is read in luminescence mode using a luminometer (SpectraMax M5e, Molecular Devices).
IC50s are determined by nonlinear regression on the basis of a sigmoidal dose/response relationship model, wherein the Hill coefficient is left variable, carried out on the GraphPad software package according to the algorithm provided.

[2] = tested on: human anaplastic large-cell lymphoma (ALCL) tumor model; assay: In vivo antitumor activity, ALCL tumors grafted subcutaneously in mice, oral daily dosing; settings: mice with subcutaneous ALCL tumors, daily schedule; for adverse effects: animals weighed several times per week; for inhibition of ALCL tumor growth: corresponds to complete regression of the tumors
Experimental: Pharmacological Activity In Vivo
The compounds were administered orally at various doses on a daily schedule to mice with ALCL tumors grafted subcutaneously. Tumor size was measured regularly during the study and the animals were weighed several times per week in order to identify any adverse effects. A compound is declared active if it induces inhibition of ALCL tumor growth by at least 58%.

[3] = molecular target: T2, c-Src (Homo sapiens, UniProt P12931); assay: Inhibition of a panel of kinases (Millipore): c-Src; type: biochemical; settings: Millipore kinase panel; read-out: Enzyme inhibition (IC50, nM) c-Src
T2 construct: purchased Millipore
T2 sequence (P12931 whole entry): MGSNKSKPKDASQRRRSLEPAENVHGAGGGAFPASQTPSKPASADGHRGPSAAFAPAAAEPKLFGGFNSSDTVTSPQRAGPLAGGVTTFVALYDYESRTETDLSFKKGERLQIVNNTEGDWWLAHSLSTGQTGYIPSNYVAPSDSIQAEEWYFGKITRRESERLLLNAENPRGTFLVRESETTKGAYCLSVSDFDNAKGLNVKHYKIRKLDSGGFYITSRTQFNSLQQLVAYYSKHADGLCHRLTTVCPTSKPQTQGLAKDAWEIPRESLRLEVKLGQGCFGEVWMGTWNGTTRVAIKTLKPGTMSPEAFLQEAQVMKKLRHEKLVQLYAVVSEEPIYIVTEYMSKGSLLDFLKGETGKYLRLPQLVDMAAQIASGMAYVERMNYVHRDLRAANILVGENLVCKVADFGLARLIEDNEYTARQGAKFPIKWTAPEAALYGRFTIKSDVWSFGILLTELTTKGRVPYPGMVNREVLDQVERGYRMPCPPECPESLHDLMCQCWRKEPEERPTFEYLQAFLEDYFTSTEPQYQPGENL
Text: (§1) Test for Measuring Inhibition of a Panel of Kinases:
(§2) These kinases are produced by Millipore and are screened according to the manufacturer's protocols.

[4] = tested on: Karpas 299 cells (human anaplastic large-cell lymphoma); assay: Test for measuring inhibition of cell (Karpas 299) proliferation (ATPlite); type: cell-based; settings: 72 hours
Experimental: Test for Measuring Inhibition of Cell (Karpas 299) Proliferation:
The antiproliferative activities of the compounds according to the invention were measured by the ATPlite technique (Perkin Elmer).
Nonadherent human anaplastic large-cell lymphoma cells (Karpas 299) are inoculated in 96-well plates (300,000 cells/ml) at day 1, at a concentration compatible with logarithmic growth for the 72 hours required for the evaluation of the compounds. All of the cells are treated at day 1 and then placed in an incubator at 37° C. under an atmosphere of 5% CO2. Cell viability is evaluated at day 4 by assaying released ATP, which is characteristic of viable cells. IC50s are determined by nonlinear regression on the basis of a sigmoidal dose/response relationship model, wherein the Hill coefficient is left variable, carried out on the GraphPad software package according to the algorithm provided.

[5] = molecular target: T1, ALK; assay: Inhibition of a panel of kinases (Millipore): ALK; type: biochemical; settings: Millipore kinase panel; read-out: Enzyme inhibition (IC50, nM) ALK
Text: as §1, §2

[6] = molecular target: T3, Abl (Homo sapiens, UniProt P00519); assay: Inhibition of a panel of kinases (Millipore): Abl; type: biochemical; settings: Millipore kinase panel; read-out: Enzyme inhibition (IC50, nM) Abl
T3 construct: purchased Millipore
T3 sequence (P00519 whole entry, species assumed): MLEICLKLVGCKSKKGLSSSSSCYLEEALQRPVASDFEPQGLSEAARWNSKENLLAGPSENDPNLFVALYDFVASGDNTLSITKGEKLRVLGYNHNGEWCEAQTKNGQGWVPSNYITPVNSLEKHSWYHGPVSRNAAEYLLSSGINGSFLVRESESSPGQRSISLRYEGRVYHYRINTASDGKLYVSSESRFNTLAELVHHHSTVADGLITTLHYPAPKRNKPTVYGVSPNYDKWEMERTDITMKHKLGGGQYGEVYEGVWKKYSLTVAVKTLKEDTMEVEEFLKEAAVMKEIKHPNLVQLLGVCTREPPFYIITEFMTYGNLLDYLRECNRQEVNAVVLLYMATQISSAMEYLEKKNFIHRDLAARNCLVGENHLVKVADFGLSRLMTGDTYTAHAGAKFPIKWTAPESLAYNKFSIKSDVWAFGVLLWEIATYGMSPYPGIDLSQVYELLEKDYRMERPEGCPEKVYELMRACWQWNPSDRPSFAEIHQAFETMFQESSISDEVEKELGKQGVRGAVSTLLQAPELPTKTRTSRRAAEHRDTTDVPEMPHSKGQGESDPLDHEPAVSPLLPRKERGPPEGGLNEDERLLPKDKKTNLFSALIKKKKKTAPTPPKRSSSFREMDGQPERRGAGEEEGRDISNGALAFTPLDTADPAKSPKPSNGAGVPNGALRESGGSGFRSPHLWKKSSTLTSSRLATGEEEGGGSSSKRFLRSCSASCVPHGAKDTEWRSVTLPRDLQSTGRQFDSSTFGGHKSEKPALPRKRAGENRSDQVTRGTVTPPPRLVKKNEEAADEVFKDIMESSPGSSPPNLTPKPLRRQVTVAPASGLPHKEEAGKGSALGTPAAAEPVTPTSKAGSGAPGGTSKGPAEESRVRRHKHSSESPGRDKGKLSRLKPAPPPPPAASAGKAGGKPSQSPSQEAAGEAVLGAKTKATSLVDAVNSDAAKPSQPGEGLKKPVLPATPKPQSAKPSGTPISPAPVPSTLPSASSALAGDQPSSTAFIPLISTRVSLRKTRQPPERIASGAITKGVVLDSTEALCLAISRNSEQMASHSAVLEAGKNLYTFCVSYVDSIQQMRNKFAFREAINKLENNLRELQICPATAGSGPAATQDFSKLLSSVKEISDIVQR
Text: as §1, §2

T1 sequence (Q9UM73 19-1620): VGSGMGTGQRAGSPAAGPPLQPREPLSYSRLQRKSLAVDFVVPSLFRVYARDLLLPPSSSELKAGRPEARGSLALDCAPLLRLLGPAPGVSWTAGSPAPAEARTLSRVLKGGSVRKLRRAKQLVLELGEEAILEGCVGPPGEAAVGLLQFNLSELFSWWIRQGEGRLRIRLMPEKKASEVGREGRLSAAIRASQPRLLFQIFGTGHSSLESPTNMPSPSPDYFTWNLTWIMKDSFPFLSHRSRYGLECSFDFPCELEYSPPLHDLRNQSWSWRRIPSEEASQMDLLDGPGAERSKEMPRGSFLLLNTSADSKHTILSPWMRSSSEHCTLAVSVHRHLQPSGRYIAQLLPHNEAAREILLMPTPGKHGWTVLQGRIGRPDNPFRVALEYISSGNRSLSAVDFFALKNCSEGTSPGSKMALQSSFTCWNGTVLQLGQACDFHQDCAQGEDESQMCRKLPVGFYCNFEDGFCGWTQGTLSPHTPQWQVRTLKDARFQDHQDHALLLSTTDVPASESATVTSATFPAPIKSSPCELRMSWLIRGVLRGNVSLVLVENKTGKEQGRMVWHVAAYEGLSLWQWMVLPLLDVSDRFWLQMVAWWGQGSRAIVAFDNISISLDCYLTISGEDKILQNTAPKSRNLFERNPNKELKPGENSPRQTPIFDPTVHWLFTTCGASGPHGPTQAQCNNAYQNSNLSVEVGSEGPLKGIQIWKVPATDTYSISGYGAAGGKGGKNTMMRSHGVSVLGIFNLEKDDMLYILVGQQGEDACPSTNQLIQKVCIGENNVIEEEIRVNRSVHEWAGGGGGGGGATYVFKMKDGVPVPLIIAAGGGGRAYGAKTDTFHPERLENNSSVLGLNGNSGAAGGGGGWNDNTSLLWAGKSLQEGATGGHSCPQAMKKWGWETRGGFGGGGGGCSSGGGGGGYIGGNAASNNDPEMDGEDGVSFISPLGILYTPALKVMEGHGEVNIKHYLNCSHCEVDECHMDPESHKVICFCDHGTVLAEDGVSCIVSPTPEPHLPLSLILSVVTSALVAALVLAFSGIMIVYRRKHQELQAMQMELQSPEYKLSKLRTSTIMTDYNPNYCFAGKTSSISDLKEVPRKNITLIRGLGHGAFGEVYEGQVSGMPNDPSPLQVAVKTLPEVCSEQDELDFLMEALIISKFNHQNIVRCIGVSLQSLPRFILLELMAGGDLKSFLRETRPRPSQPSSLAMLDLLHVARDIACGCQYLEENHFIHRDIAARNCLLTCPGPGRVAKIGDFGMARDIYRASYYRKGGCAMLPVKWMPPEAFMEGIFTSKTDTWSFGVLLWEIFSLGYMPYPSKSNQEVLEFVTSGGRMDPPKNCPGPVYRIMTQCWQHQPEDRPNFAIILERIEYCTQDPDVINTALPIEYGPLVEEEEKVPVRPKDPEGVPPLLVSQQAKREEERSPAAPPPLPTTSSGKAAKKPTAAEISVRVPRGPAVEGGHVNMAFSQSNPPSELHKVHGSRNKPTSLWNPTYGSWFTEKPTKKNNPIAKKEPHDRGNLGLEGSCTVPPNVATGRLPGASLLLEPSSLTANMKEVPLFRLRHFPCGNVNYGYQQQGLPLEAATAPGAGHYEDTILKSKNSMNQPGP

## CN1CCN(c2ccc(CNc3n[nH]c4ncc(Sc5cc(F)cc(F)c5)cc34)cc2)CC1 [Example 28, 5-(3,5-difluorophenylthio)-N-(4-(4-methylpiperazin-1-yl)benzyl)-1H-pyrazolo[3,4-b]pyridin-3-amine]
[1]
  IC50: 36 nM

## CN1CCN(c2ccc(C(=O)Nc3n[nH]c4ncc(Sc5cc(F)cc(F)c5)cc34)c(NC3CCOCC3)c2)CC1 [Example 30, N-(5-(3,5-difluorophenylthio)-1-H-pyrazolo[3,4-b]pyridine-3-yl)-4-(4-methylpiperazine-1-yl)-2-(tetrahydro-2H-pyran-4-ylamino)benzamide]
[2]
  adverse effects: no adverse effects
  inhibition of ALCL tumor growth: 100%
[1]
  IC50: 1 nM
[3]
  IC50: 4 nM
[4]
  IC50: 160 nM
[5]
  IC50: 7 nM
[6]
  IC50: 18 nM

## CN1CCN(c2ccc(C(=O)Nc3n[nH]c4ncc(Sc5ccccc5C(N)=O)cc34)c(NC3CCOCC3)c2)CC1 [Example 30-1, N-(5-(2-carbamoylphenylthio)-1H-pyrazolo[3,4-b]pyridin-3-yl)-4-(4-methylpiperazin-1-yl)-2-(tetrahydro-2H-pyran-4-ylamino)benzamide]
[1]
  IC50: 20 nM
[4]
  IC50: 2200 nM

## COc1nc2[nH]nc(NC(=O)c3ccc(N4CCN(C)CC4)cc3NC3CCOCC3)c2cc1Sc1cc(F)cc(F)c1 [Example 30-5, N-(5-(3,5-difluorophenylthio)-6-methoxy-1H-pyrazolo[3,4-b]pyridin-3-yl)-4-(4-methylpiperazin-1-yl)-2-(tetrahydro-2H-pyran-4-ylamino)benzamide]
[1]
  IC50: 66 nM
[4]
  IC50: 2600 nM

## CN1CCN(c2ccc(C(=O)Nc3n[nH]c4ncc(Cc5cc(F)cc(F)c5)cc34)c(NC3CCOCC3)c2)CC1 [Example 30-9, N-(5-(3,5-difluorobenzyl)-1H-pyrazolo[3,4-b]pyridin-3-yl)-4-(4-methylpiperazin-1-yl)-2-(tetrahydro-2H-pyran-4-ylamino)benzamide]
[2]
  adverse effects: no adverse effects
  inhibition of ALCL tumor growth: 100%
[1]
  IC50: 1 nM
[3]
  IC50: 9 nM
[5]
  IC50: 15 nM
[6]
  IC50: 38 nM

## CN1CCN(c2ccc(C(=O)Nc3n[nH]c4ncc(CCc5cc(F)cc(F)c5)cc34)c(NC3CCOCC3)c2)CC1 [Example 31, N-(5-(3,5-difluorophenethyl)-1H-pyrazolo[3,4-b]pyridin-3-yl)-4-(4-methylpiperazin-1-yl)-2-(tetrahydro-2H-pyran-4-ylamino)benzamide]
[1]
  IC50: 17 nM
[4]
  IC50: 830 nM
